One assay has as its system endocan mRNA in HUVECs. As to the kind of experiment: Endocan mRNA expression in serum-starved HUVECs (Northern blot). The format is cell-based, human. The conditions noted are these: for Inhibition of endocan induction by VEGF / Inhibition of endocan induction by tumor cell-conditioned medium: HUVECs preincubated 30 minutes with 5 μM BIM; for Inhibition of endocan induction by VEGF: 20 μM LY294002, 50 μM PD98059 or 20 μM SU1498 before 6 hour treatment with 20 ng/ml VEGF, FIGS. 3G; for Inhibition of endocan induction by VEGF / Effect of growth factor addition on endocan mRNA: 3I; for Inhibition of endocan induction by tumor cell-conditioned medium: 20 μM LY294002 or 50 μM PD98059 before 6 hour treatment, FIG. 3H; for Effect of growth factor addition on endocan mRNA: growth factor added to serum-starved HUVECs, FIGS. 3D-3F. On the procedure: Human non-small lung cancer cells (NCI-H1437, ATCC (American Type Culture Collection) CRL-5872) and rat glioma cells (C6, ATCC CCL-107) were grown in DMEM (Life Technologies Inc., Gaithersburg, Md.) containing 10% FBS (Life Technologies Inc.). Human renal cell carcinoma cells (786-0, ATCC CRL-1932) were maintained in RPMI 1640 (Life Technologies Inc.) containing 10% FBS. HUVECs, human epidermal keratinocytes and human renal tubule epithelial cells were obtained from Clonetics (San Diego, Calif.) and grown in EGM-2-MV, KGM and REGM, respectively (Clonetics). All cells were maintained at 37° C. under 5% CO2 in humidified air. Endothelial cells were grown to 90% confluence, serum-starved overnight in EBM-2 medium containing 0.5% FBS and incubated in the absence or presence of tumor cell-conditioned medium or growth factors at the doses and for the times indicated. Unless otherwise stated, endothelial cells were incubated with 20 ng/ml VEGF for 6 hours. In inhibition studies, serum-starved endothelial cells were preincubated with 5 μM BIM, 20 μM LY294002, 50 μM PD98059, or 20 μM SU1498 for 30 minutes before a 6 hour treatment with tumor conditional medium or VEGF. For neutralization studies, tumor conditional medium or growth factors were preincubated with antibodies for 1 hour at 37° C. and the mixture was then added to serum-starved HUVECs.
Cultured cells and tissues were harvested for total RNA extraction, using the Trizol reagent (Life Technologies). Five μg total RNA from cells or 10 μg RNA from tissues were loaded on a 0.7% formaldehyde-containing agarose gel. The RNA was transferred to nylon membrane, covalently cross-linked by UV radiation, prehybridized for 6 hours, and hybridized for 18 hours at 42° C. with 10^6 cpm/ml [^32P] dCTP-labeled human endocan, mouse endocan, mouse vWF, or mouse VEGF cDNA probe.

Another assay addresses Flk-1 kinase. The conditions noted are these: selective inhibitor of Flk-1 kinase, obtained from Calbiochem; cited from earlier work.
A further assay deals with Flt-1 in HUVECs. The following applies: VEGF added to HUVECs; Wang et al. 2000; cited from earlier work.

Consider `CN(C)CCCn1cc(C2=C(c3c[nH]c4ccccc34)C(=O)NC2=O)c2ccccc21` [BIM, Bisindolylmaleimide I], for which, in the assay with endocan mRNA in HUVECs, the “Inhibition of endocan induction by VEGF” value was “completely inhibited” and the “Inhibition of endocan induction by tumor cell-conditioned medium” value is “completely inhibited”. As for `COc1cccc(-c2cc(=O)c3ccccc3o2)c1N` [PD90985], in the assay on endocan mRNA in HUVECs, the “Inhibition of endocan induction by tumor cell-conditioned medium” value was “not”. One may read the IC50 as the concentration that inhibits the measured activity by half. With `CC(C)c1cc(/C=C(\C#N)C(=O)NCCCc2ccccc2)cc(C(C)C)c1O` [SU1498], at Flk-1 kinase, the IC50 was 700 nM. For the same molecule, the “Inhibition of endocan induction by VEGF” value in the assay with endocan mRNA in HUVECs is “blocked”. On to VEGF, for which, in the assay with endocan mRNA in HUVECs, the “Effect of growth factor addition on endocan mRNA” value was “time and dose dependent increase”. Moreover, in the assay on Flt-1 in HUVECs, the “Cell surface expression of Flt-1” value was “reduced” and the “Flt-1 mRNA” value was “increased”.

B1: placenta growth factor (PlGF): Recombinant human placenta growth factor purchased from R&D Systems (protein, UniProt P49763 19-221, looked up)
Placenta growth factor: LPAVPPQQWALSAGNGSSEVEVVPFQEVWGRSYCRALERLVDVVSEYPSEVEHMFSPSCVSLLRCTGCCGDENLHCVPVETANVTMQLLKIRSGDRPSYVELTFSQHVRCECRHSPGRQSPDMPGDFRADAPSFLPPRRSLPMLFRMEWGCALTGSQSAVWPSSPVPEEIPRMHPGRNGKKQQRKPLREKMKPERCGDAVPRR
On to B1, for which the “Effect of growth factor addition on endocan mRNA” value in the assay with endocan mRNA in HUVECs is on record as “did not alter”.
